From ChEMBL document CHEMBL3877337, “Crystal Structures of ERAP2 Complexed with Inhibitors Reveal Pharmacophore Requirements for Optimizing Inhibitor Potency” (ACS Med Chem Lett, 2017)

Biological target: Endoplasmic reticulum aminopeptidase 2 (Homo sapiens, UniProt Q6P179)
Test: Inhibition of recombinant ERAP2 (unknown origin) expressed in baculovirus infected insect cells using L-arginine-7-amido-4-methylcoumarine as substrate by spectrofluorimetric assay

Chain of Endoplasmic reticulum aminopeptidase 2 (Q6P179 whole entry): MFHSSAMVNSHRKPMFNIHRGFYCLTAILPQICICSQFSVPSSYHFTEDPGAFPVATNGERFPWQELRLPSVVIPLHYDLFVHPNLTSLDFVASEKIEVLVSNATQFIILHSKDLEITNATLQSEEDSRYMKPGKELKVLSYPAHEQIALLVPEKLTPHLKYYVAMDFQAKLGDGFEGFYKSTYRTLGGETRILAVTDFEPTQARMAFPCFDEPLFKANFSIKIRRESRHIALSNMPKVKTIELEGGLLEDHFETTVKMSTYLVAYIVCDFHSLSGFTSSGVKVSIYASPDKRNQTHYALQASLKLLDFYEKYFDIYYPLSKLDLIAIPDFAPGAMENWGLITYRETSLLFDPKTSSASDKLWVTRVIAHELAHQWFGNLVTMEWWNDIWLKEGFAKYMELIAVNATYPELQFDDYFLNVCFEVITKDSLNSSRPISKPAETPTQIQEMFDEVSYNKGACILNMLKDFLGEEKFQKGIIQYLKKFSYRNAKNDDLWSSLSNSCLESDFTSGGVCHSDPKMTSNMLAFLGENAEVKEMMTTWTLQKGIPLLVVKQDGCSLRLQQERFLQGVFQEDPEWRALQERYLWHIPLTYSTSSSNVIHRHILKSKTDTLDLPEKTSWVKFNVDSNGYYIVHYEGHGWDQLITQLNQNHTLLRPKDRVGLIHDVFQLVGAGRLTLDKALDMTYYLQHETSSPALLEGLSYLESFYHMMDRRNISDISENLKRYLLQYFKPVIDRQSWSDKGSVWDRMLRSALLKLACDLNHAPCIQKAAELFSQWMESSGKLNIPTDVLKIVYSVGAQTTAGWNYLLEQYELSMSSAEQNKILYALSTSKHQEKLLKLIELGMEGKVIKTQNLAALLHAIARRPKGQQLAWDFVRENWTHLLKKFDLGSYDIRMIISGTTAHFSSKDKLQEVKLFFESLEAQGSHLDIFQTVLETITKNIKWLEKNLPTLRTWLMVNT

IC50: > 100 µM
SMILES: O=C(NO)C(Cc1ccc(F)cc1)C(=O)NCc1ccccc1 (stereo unspecified)
